According to patent US9540325B2, “N1-cyclic amine-N5-substituted phenyl biguanide derivatives, methods of preparing the same and pharmaceutical composition comprising the same” (Immunomet Therapeutics, Inc., priority 2011, dated 2017):
Counter-ions that a name gives are not always drawn.

Assays:
[1] = tested on: MCF7 cells (breast cancer stem cell, mammosphere); assay: Measurement of effect of inhibiting mammosphere formation; type: cell-based, human; settings: MCF7, 8 days; for Number of Mammospheres: size 50 um or more
Text: The cancer stem cells refer to cancer cells that have self-regeneration or differentiation capacity which is characteristically innate to stem cells. Here, the cancer stem cells show resistance to conventional anticancer therapy and poor prognosis. Therefore, the biguanide derivative has an effect of inhibiting cancer recurrence by inhibiting formation and proliferation of cancer stem cells, especially, breast cancer stem cells (mammosphere). Accordingly, the effect of the biguanide derivative of inhibiting breast cancer stem cell (mammosphere) formation was measured in an MCF7 cell line derived from human breast cancer forming mammospheres, and simple experimental methods are described, as follows.
MCF7 cells derived from human breast cancer were cultured (culture temperature: 37° C., pH: 7.0 to 7.4) in a DMEM medium supplemented with 10% (v/v) fetal bovine serum (commercially available from Gibco Life Technologies (US)) so that the MCF7 cells could grow to approximately 80% confluency and used in an experiment to determine an ability to form mammospheres. After MCF7 cells were made to single cells and the number of cell was counted, MCF7 cells were put in to a 24-well plate at 2,000 cells/well. […] Also, a culture media for forming mammospheres was prepared so that a serum-free DMEM/F12 medium could include 2% B27 (commercially available from Invitrogen), 20 ng/ml EGF (commercially available from Sigma), 5 μg/ml insulin (commercially available from Sigma) and 1 μg/ml hydrocortisone (commercially available from Sigma). Cells were cultured in a CO2 incubator for 24 hours and treated with each of the compounds synthesized in the examples at contents of 0.1 μM, 1 μM, 5 μM and 10 μM. Then, the cultured cells were added to the culture media for forming mammospheres so that a final volume of the culture broth could be adjusted to 1 ml. The cells were treated with the same concentrations of phenformin hydrochloride as the control and cultured in a CO2 incubator for 8 days. Thereafter, the mammosphere-forming efficiency and size of the cells were observed. After 8 days, the number of mammospheres having a size of 50 um or more was determined to calculate the mammosphere-forming efficiency (MFE (%)). The MFE (%) is calculated according to the following Equation 1.
When the cells were cultured for 8 days, MFE (%) of the cells on a plate treated with the phenformin hydrochloride and the compounds synthesized in the examples was compared with MFE (%) of the cells on a plate that was not treated with the compounds. The results are listed as the mammosphere formation inhibition rate (%) in the following Table 4, and the mammosphere-forming efficiencies of the respective compounds are shown in FIG. 1.

Snail = assay: EMT inhibitory effect by inhibition of Snail expression (immunoblotting) in MCF7 cells; type: cell-based, human; settings: MCF7, 48 hours, untreated control = 100%
Procedure: Cells undergoing EMT owing to various cytokines and growth factors can acquire motility and thus move a distance to form tumors in new tissues. Therefore, the metastasis of cancer cells can be inhibited by controlling expression of EMT-related transcription factors to hinder EMT. Based on these facts, the activities of biguanide derivatives that inhibit Snail expression, which is a transcription factor inducing EMT in the MCF7 cell line derived from human breast cancer, were measured and simple experimental methods are described, as follows.
MCF7 cells derived from human breast cancer (commercially available from Korean Cell Line Bank) were cultured in a DMEM medium supplemented with 10% (v/v) fetal bovine serum (commercially available from Gibco Life Technologies (US)), put into a 6-well plate so that the number of cultured cells could amount to approximately 5×10^5 cells per well, and then incubated in an incubator supplied with 5% CO2 (culture temperature: 37° C., pH: 7.0 to 7.4). The culture media were treated with phenformin hydrochloride and the compounds synthesized in the examples at contents of 1 μM and 10 μM, respectively, and then incubated for 48 hours. Metformin hydrochloride was used as the control, and the cells were treated with 1 mM and 10 mM metformin hydrochloride. After 48 hours, the cells were lysed in a cell lysis buffer containing 10 mM Tris HCl (pH7.4), 100 mM NaCl, 1 mM EDTA, 1 mM EGTA, 1 mM NaF, 20 mM Na4P2O7, 2 mM Na3VO4, 1% TritonX-100, 10% glycerol, 0.5% deoxycholate and 1 mM PMSF. Then, 25 μg of the cell lysate was electrophoresized in an SDS-PAGE gel, and then transferred to a […] membrane (commercially available from Amersham Life Science). The membrane reacted with rat monoclonal anti-human Snail (commercially available from Cell signaling Technology) or mouse monoclonal anti-β-actin (commercially available from Santa cruz Biotechnology), and unbound antibodies were removed. In this case, anti-β-actin was used as the antibody to ensure that the amount of proteins loaded into the SDS-PAGE gel is identical. The membrane was reacted again with a secondary antibody, anti-rat IgG (commercially available from Cell signaling Technology) or anti-mouse IgG (commercially available from Santa Cruz Biotechnology). Finally, the antibody bound to the membrane was detected using an ECL Plus system (commercially available from Amersham Life Science). Also, the expression level of Snail with respect to β-actin was analyzed using a Scion image analysis program. Here, when it was assumed that the expression level of the untreated control was 100%, the expression level of the Snail by treatment with the compounds synthesized in the examples was indicated as a percentage (%).

In the case of [H]/N=C(/N)N/C(=N/[H])NCCc1ccccc1 [Phenformin hydrochloride, reference compound], the “MFE (%) (mammosphere-forming efficiency)” value ([1]; 0.1 μM) is reported as 4.2%, the “Number of Mammospheres” value ([1]; 0.1 μM) is reported as 84 ± 2.8 and the “MFE (%) (mammosphere-forming efficiency)” value ([1]; 1 μM) is reported as 3.9%. The “Number of Mammospheres” value ([1]; 1 μM) was 79 ± 0.7, the “MFE (%) (mammosphere-forming efficiency)” value ([1]; 5 μM) was 5.2% and the “Number of Mammospheres” value ([1]; 5 μM) was 103 ± 1.4. For the same compound, the “MFE (%) (mammosphere-forming efficiency)” value ([1]; 10 μM) was 5.8%, the “Number of Mammospheres” value ([1]; 10 μM) was 116 ± 19.1 and the inhibition at 0.1 µM ([1]; Homo sapiens, 192 h, 0.1 μM, vs untreated, read-out: Mammosphere formation inhibition rate (%)) was 18.4%. For the same compound, the inhibition at 1 µM ([1]; Homo sapiens, 192 h, 1 μM, vs untreated, read-out: Mammosphere formation inhibition rate (%)) was 23.8%, the inhibition at 5 µM ([1]; Homo sapiens, 192 h, 5 μM, vs untreated, read-out: Mammosphere formation inhibition rate (%)) was 0% and the inhibition at 10 µM ([1]; Homo sapiens, 192 h, 10 μM, vs untreated, read-out: Mammosphere formation inhibition rate (%)) was -12.1%. The “Snail Expression Rate (%)” value (Snail; 1 μM) was 117.6% and the “Snail Expression Rate (%)” value (Snail; 10 μM) was 53.8%.
